This note sets out measurements from patent US8471005B2 (Cephalon, Inc., priority 2008, dated 2013).

One test addresses T1, ALK (Homo sapiens, UniProt Q9UM73).
T1 construct: host or cells: baculovirus expression system
Description: ALK Kinase Assay (ELISA/TRF, PLC-γ substrate). The format is biochemical. The following applies: read-out: ALK Potency. The method, boiled down: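 PLC-γ substrate coated at 10 μg/mL in TBS; reaction started with 30 ng/ml ALK, run 15 min at 37° C. Phosphoproduct detected by TRF with Eu-N1-labeled PT66 anti-phosphotyrosine antibody. IC50 from sigmoidal variable-slope fit of percent inhibition versus log concentration.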
In general terms: ELISA stands for enzyme-linked immunosorbent assay.

In a further test the target is T2, JAK2 (Homo sapiens, UniProt O60674).
T2 construct: host or cells: baculovirus expression system
Description: Recombinant Human JAK2 Kinase Assay (TRF). The format is biochemical. The following applies: read-out: JAK2 Potency. The essentials: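 Kinase activity of baculovirus-expressed JAK2 is followed on a surface-immobilised biotinylated peptide, with the reaction run for 20 min at room temperature in buffer containing 0.2 μM ATP and manganese. Phosphorylation is read with Eu-N1 PY100 antibody.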

[1] abbreviates: ALK kinase inhibition, 1 μM ATP.
[2] abbreviates: JAK2 kinase inhibition, 0.2 μM ATP.

Read-outs that look alike come from different tables or passages of the source.

T1 sequence (Q9UM73 19-1620): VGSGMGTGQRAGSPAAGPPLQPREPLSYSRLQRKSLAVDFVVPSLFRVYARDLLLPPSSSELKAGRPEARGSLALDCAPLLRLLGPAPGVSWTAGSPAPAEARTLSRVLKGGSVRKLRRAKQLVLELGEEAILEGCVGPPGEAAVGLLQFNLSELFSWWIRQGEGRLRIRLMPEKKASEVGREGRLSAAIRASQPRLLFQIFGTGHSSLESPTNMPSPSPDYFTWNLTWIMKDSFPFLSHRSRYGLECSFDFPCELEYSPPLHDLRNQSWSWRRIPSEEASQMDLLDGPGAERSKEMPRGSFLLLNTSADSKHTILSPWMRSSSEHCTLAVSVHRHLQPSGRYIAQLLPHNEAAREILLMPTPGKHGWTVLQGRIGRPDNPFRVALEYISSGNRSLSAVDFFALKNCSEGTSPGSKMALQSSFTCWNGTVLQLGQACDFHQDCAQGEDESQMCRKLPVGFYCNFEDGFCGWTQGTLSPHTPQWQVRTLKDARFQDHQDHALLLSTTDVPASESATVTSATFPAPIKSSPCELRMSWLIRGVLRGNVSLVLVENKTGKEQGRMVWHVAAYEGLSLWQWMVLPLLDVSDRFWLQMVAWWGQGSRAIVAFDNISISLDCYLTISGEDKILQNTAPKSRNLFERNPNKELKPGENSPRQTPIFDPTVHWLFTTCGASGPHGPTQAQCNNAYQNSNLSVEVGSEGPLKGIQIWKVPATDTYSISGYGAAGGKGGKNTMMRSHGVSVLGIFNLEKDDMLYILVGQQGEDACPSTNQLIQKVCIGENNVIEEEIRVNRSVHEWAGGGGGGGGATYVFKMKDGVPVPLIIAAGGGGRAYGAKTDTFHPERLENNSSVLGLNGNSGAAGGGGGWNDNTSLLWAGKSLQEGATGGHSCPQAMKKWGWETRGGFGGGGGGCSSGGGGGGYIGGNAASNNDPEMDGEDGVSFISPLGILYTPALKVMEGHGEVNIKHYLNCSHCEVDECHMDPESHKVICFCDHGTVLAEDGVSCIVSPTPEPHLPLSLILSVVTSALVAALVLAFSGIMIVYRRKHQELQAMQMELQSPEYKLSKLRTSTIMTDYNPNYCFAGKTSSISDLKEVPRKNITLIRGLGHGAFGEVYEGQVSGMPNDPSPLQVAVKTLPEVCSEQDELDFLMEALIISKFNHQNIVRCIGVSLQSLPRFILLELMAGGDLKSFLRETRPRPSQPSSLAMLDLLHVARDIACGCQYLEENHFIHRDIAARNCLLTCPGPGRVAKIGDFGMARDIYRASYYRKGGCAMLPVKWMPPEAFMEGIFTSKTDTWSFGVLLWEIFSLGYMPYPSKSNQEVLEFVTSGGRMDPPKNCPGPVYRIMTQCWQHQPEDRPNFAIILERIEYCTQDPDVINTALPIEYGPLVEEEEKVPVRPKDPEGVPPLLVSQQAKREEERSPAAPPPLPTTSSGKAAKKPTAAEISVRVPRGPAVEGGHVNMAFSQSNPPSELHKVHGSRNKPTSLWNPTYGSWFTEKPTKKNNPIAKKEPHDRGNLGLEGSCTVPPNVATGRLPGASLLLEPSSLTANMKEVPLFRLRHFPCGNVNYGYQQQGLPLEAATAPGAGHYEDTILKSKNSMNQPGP
T2 sequence (O60674 whole entry): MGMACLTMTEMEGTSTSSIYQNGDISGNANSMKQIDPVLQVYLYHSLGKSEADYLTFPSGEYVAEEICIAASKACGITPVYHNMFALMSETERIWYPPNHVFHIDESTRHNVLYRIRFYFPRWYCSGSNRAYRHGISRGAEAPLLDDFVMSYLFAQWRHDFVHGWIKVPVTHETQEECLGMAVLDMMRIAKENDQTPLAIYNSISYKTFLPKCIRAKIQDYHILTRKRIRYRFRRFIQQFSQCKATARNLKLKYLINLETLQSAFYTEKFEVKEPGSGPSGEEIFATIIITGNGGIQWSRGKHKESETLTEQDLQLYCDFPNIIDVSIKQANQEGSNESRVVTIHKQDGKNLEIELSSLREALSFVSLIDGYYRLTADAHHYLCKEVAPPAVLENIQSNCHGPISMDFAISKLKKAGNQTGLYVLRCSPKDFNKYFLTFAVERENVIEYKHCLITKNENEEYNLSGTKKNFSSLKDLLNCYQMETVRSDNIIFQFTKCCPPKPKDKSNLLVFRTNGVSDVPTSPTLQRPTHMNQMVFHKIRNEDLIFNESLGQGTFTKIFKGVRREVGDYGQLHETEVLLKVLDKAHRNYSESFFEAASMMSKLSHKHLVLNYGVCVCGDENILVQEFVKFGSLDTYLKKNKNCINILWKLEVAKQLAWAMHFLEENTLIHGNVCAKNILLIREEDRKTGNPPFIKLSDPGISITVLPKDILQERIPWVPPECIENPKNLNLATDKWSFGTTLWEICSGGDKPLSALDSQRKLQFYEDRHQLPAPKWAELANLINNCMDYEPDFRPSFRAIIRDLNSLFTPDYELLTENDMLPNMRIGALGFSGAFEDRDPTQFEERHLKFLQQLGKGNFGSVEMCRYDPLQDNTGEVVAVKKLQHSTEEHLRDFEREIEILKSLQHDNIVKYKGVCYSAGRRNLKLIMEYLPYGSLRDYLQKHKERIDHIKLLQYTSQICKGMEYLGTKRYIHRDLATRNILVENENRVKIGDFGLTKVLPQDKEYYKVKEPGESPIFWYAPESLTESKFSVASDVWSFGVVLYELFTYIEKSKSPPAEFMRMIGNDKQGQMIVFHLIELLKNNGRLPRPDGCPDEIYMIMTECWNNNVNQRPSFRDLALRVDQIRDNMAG

Turning to `CN1CCN(C2CCCN(c3ccc(Nc4ncc5ccc(-c6ccc(S(C)(=O)=O)cc6)n5n4)cc3)C2)CC1` (stereo not drawn) [Example 351, [7-(4-Methanesulfonyl-phenyl)-pyrrolo[2,1-f][1,2,4]triazin-2-yl]-{4-[3-(4-methyl-piperazin-1-yl)-piperidin-1-yl]-phenyl}-amine], the values for the IC50 at ALK (ALK Kinase Inhibition) and at JAK2 (JAK2 Kinase Inhibition) were 100 to 1000 nM and less than 100 nM, respectively.
In the case of `Clc1cccc(-c2ccc3cnc(Nc4ccc(N5CCCCC5)cc4)nn23)c1` [Example 49, [7-(3-Chloro-phenyl)-pyrrolo[2,1-f][1,2,4]triazin-2-yl]-(4-piperidin-1-yl-phenyl)-amine], the results for the IC50 at ALK (ALK Kinase Inhibition) and on JAK2 (JAK2 Kinase Inhibition) were greater than 10000 nM and less than 100 nM, respectively.
Consider `CC(=O)N1CCc2ccc(Nc3ncc4ccc(-c5cccc(NC(=O)C(C)(C)C)c5)n4n3)cc21` [Example 882, N-{3-[2-(1-Acetyl-2,3-dihydro-1H-indol-6-ylamino)-pyrrolo[2,1-f][1,2,4]triazin-7-yl]-phenyl}-2,2-dimethyl-propionamide], for which the values for the IC50 on ALK (setting [1]) and at JAK2 (setting [2]) were greater than 10000 nM and less than 100 nM, respectively.
For `C[C@H](O)CN1CCN(c2ccc(Nc3ncc4ccc(-c5cccc(Cl)c5)n4n3)cc2)CC1` [Example 204, (S)-1-(4-{4-[7-(3-Chloro-phenyl)-pyrrolo[2,1-f][1,2,4]triazin-2-ylamino]-phenyl}-piperazin-1-yl)-propan-2-ol], the IC50 on ALK (ALK Kinase Inhibition) and at JAK2 (JAK2 Kinase Inhibition) was less than 100 nM each time.
Regarding `COc1ccc(-c2ccc3cnc(Nc4ccc(C5CCN(C)CC5)c(OC)c4)nn23)cn1` [Example 910, [3-Methoxy-4-(1-methyl-piperidin-4-yl)-phenyl]-[7-(6-methoxy-pyridin-3-yl)-pyrrolo[2,1-f][1,2,4]triazin-2-yl]-amine], the IC50 at ALK (setting [1]) and at JAK2 (setting [2]) was less than 100 nM in each case.
Take `COc1cc(C2CCN(CC(=O)O)CC2)ccc1Nc1ncc2ccc(-c3ccccc3OC)n2n1` [Example 1278, (4-{3-Methoxy-4-[7-(2-methoxy-phenyl)-pyrrolo[2,1-f][1,2,4]triazin-2-ylamino]-phenyl}-piperidin-1-yl)-acetic acid]: the IC50 is less than 100 nM on ALK (setting [1]) and 100 to 1000 nM on JAK2 (setting [2]).
Regarding `CN1CCN(c2ccc(Nc3ncc4c(-c5ccccc5Cl)ccn4n3)cc2)CC1` [Example 40, [5-(2-Chloro-phenyl)-pyrrolo[2,1-f][1,2,4]triazin-2-yl]-[4-(4-methyl-piperazin-1-yl)-phenyl]-amine], the IC50 on ALK (ALK Kinase Inhibition) was greater than 10000 nM; at JAK2 (JAK2 Kinase Inhibition), 1000 to 10000 nM.
On to `COc1ccccc1-c1ccc2cnc(Nc3ccc4nc(CO)[nH]c4c3)nn12` [Example 1067, {6-[7-(2-Methoxy-phenyl)-pyrrolo[2,1-f][1,2,4]triazin-2-ylamino]-1H-benzoimidazol-2-yl}-methanol], for which the IC50 on ALK (setting [1]) is 100 to 1000 nM; on JAK2 (setting [2]), less than 100 nM.
Consider `COc1cc2c(cc1Nc1ncc3ccc(-c4ccccc4N(C)S(C)(=O)=O)n3n1)CN(C)C2` [Example 809, N-{2-[2-(6-Methoxy-2-methyl-2,3-dihydro-1H-isoindol-5-ylamino)-pyrrolo[2,1-f][1,2,4]triazin-7-yl]-phenyl}-N-methyl-methanesulfonamide], for which the IC50 on ALK (setting [1]) is less than 100 nM; on JAK2 (setting [2]), 100 to 1000 nM.
For `CN1CCN(c2ccc(Nc3ncc4ccc(-c5cccc(CNCCS(C)(=O)=O)c5)n4n3)cc2)CC1` [Example 1162, (7-{3-[(2-Methanesulfonyl-ethylamino)-methyl]-phenyl}-pyrrolo[2,1-f][1,2,4]triazin-2-yl)-[4-(4-methyl-piperazin-1-yl)-phenyl]-amine], in that order: 100 to 1000 nM and less than 100 nM.
For `COc1ccc(CN2CCOCC2)cc1Nc1ncc2ccc(-c3ccccc3N(C)S(C)(=O)=O)n2n1` [Example 498, N-{2-[2-(2-Methoxy-5-morpholin-4-ylmethyl-phenylamino)-pyrrolo[2,1-f][1,2,4]triazin-7-yl]-phenyl}-N-methyl-methanesulfonamide], in that order: 1000 to 10000 nM and 1000 to 10000 nM.
Consider `c1cncc(-c2ccc3cnc(Nc4ccc(N5CCC(N6CCOCC6)CC5)cc4)nn23)c1` [Example 337, [4-(4-Morpholin-4-yl-piperidin-1-yl)-phenyl]-(7-pyridin-3-yl-pyrrolo[2,1-f][1,2,4]triazin-2-yl)-amine], for which the results for the IC50 on ALK (ALK Kinase Inhibition) and on JAK2 (JAK2 Kinase Inhibition) were 100 to 1000 nM and less than 100 nM, respectively.
The matching figures for `CS(=O)(=O)Nc1cccc(-c2ccc3cnc(Nc4ccc(F)c(N5CCOCC5)c4)nn23)c1` [Example 390, N-{3-[2-(4-Fluoro-3-morpholin-4-yl-phenylamino)-pyrrolo[2,1-f][1,2,4]triazin-7-yl]-phenyl}-methanesulfonamide]: 100 to 1000 nM and less than 100 nM.
For the compound “4-[2-(4-Morpholin-4-yl-phenylamino)-pyrrolo[2,1-f][1,2,4]triazin-7-yl]-piperidine-1-carboxylic acid tert-butyl ester [Example 1128]”, the IC50 on ALK (setting [1]) was greater than 10000 nM; on JAK2 (setting [2]), less than 100 nM.
With `CN1CCN(C(=O)c2cccc(Nc3ncc4ccc(-c5cccnc5)n4n3)c2)CC1` [Example 341, (4-Methyl-piperazin-1-yl)-[3-(7-pyridin-3-yl-pyrrolo[2,1-f][1,2,4]triazin-2-ylamino)-phenyl]-methanone], the IC50 at ALK (ALK Kinase Inhibition) is 1000 to 10000 nM; at JAK2 (JAK2 Kinase Inhibition), less than 100 nM.
Turning to `COc1ccccc1-c1ccc2cnc(Nc3cccc(C(=O)N4CCN(C)CC4)c3)nn12` [Example 338, {3-[7-(2-Methoxy-phenyl)-pyrrolo[2,1-f][1,2,4]triazin-2-ylamino]-phenyl}-(4-methyl-piperazin-1-yl)-methanone], the IC50 on ALK (ALK Kinase Inhibition) was 100 to 1000 nM; at JAK2 (JAK2 Kinase Inhibition), less than 100 nM.
In the case of `N#Cc1ccc(-c2ccc3cnc(Nc4ccc(N5CCOCC5)cc4)nn23)cn1` [Example 37, 5-[2-(4-Morpholin-4-yl-phenylamino)-pyrrolo[2,1-f][1,2,4]triazin-7-yl]-pyridine-2-carbonitrile], the IC50 was 1000 to 10000 nM at ALK (ALK Kinase Inhibition) and less than 100 nM at JAK2 (JAK2 Kinase Inhibition).
For `CC(C)(C)NS(=O)(=O)c1cccc(-c2ccc3cnc(Nc4cncc(C(N)=O)c4)nn23)c1` [Example 665, 5-[7-(3-tert-Butylsulfamoyl-phenyl)-pyrrolo[2,1-f][1,2,4]triazin-2-ylamino]-nicotinamide], the results for the IC50 at ALK (setting [1]) and at JAK2 (setting [2]) were greater than 10000 nM and less than 100 nM, respectively.
Regarding `CON=C1CCC(c2ccc(Nc3ncc4ccc(-c5cccc(S(=O)(=O)C(C)C)c5)n4n3)cc2)CC1` (stereo not drawn) [Example 576, 4-(4-{7-[3-(Propane-2-sulfonyl)-phenyl]-pyrrolo[2,1-f][1,2,4]triazin-2-ylamino}-phenyl)-cyclohexanone O-methyl-oxime], the IC50 is 1000 to 10000 nM at ALK (setting [1]) and less than 100 nM on JAK2 (setting [2]).
In the case of `CN1CCN(c2ccc(Nc3ncc4ccc(-c5ccc(CN6CCS(=O)(=O)CC6)cc5)n4n3)cc2)CC1` [Example 1031, {7-[4-(1,1-Dioxo-1$1(6)-thiomorpholin-4-ylmethyl)-phenyl]-pyrrolo[2,1-f][1,2,4]triazin-2-yl}-[4-(4-methyl-piperazin-1-yl)-phenyl]-amine], the IC50 on ALK (setting [1]) and on JAK2 (setting [2]) was less than 100 nM throughout.
Turning to `CS(=O)(=O)c1ccc(-c2ccc3cnc(Nc4ccc(C5(C#N)CCN(CC(N)=O)CC5)cc4)nn23)cc1` [Example 1547, 2-(4-Cyano-4-{4-[7-(4-methanesulfonyl-phenyl)-pyrrolo[2,1-f][1,2,4]triazin-2-ylamino]-phenyl}-piperidin-1-yl)-acetamide], the figures for the IC50 at ALK (ALK Kinase Inhibition) and at JAK2 (JAK2 Kinase Inhibition) were 1000 to 10000 nM and less than 100 nM, respectively.
The matching figures for `COc1ccccc1-c1ccc2cnc(Nc3cccc(N4CCN(CC(C)(C)O)CC4)c3)nn12` [Example 218, 1-(4-{3-[7-(2-Methoxy-phenyl)-pyrrolo[2,1-f][1,2,4]triazin-2-ylamino]-phenyl}-piperazin-1-yl)-2-methyl-propan-2-ol]: less than 100 nM and less than 100 nM.
As for `COc1cc(C2CCN(C)CC2)ccc1Nc1ncc2ccc(-c3cccc4c3OCC4)n2n1` [Example 705, [7-(2,3-Dihydro-benzofuran-7-yl)-pyrrolo[2,1-f][1,2,4]triazin-2-yl]-[2-methoxy-4-(1-methyl-piperidin-4-yl)-phenyl]-amine], the IC50 is less than 100 nM on ALK (setting [1]) and 100 to 1000 nM on JAK2 (setting [2]).
Regarding `COc1cc(C2CCN(C(=O)C3CCN3)CC2)ccc1Nc1ncc2ccc(-c3ccccc3N(C)S(C)(=O)=O)n2n1` (racemic) [Example 863, (±)-N-[2-(2-{4-[1-(Azetidine-2-carbonyl)-piperidin-4-yl]-2-methoxy-phenylamino}-pyrrolo[2,1-f][1,2,4]triazin-7-yl)-phenyl]-N-methyl-methanesulfonamide], the IC50 at ALK (setting [1]) is less than 100 nM; on JAK2 (setting [2]), 1000 to 10000 nM.
On to `COc1ccc(-c2ccc3cnc(Nc4ccc5c(c4)CN(C)C5)nn23)cn1` [Example 937, [7-(6-Methoxy-pyridin-3-yl)-pyrrolo[2,1-f][1,2,4]triazin-2-yl]-(2-methyl-2,3-dihydro-1H-isoindol-5-yl)-amine], for which the IC50 is 1000 to 10000 nM on ALK (setting [1]) and less than 100 nM at JAK2 (setting [2]).
The matching figures for `N#CCCc1cccc(-c2ccc3cnc(Nc4ccc(N5CCC(N6CCOCC6)CC5)cc4)nn23)c1` [Example 1150, 3-(3-{2-[4-(4-Morpholin-4-yl-piperidin-1-yl)-phenylamino]-pyrrolo[2,1-f][1,2,4]triazin-7-yl}-phenyl)-propionitrile]: less than 100 nM and less than 100 nM.
Take `CN1CCN(c2ccc(Nc3ncc4ccc(-c5cccc(N(C)S(C)(=O)=O)c5)n4n3)cc2)CC1` [Example 419, N-Methyl-N-(3-{2-[4-(4-methyl-piperazin-1-yl)-phenylamino]-pyrrolo[2,1-f][1,2,4]triazin-7-yl}-phenyl)-methanesulfonamide]: the IC50 was 100 to 1000 nM on ALK (ALK Kinase Inhibition) and less than 100 nM on JAK2 (JAK2 Kinase Inhibition).
